Assay results reported in patent US20060135624A1, “Natural compound useful for treating diabetes, its preparation and use” (JINGYU LIANG ET AL, priority 2002, published 2006).

What was measured:
[1] = tested on: blood-sugar level of normal mice; assay: Effect of Sequoyitol on blood-sugar level of normal mice; format: in vivo, Kunming mice; conditions: Sequoyitol groups (25, 50, 100 mg/kg) oral 7 days
Description: 1. Experimental Method^[3] • 60 Mice were randomly divided into 5 groups, […] according to 0.1 ml/10 g of body weight, respectively, and the normal group was administrated with the same volum of the same volum of distilled water. These administrations were conducted for continuous 7 days. The blood-sugar levels were detected by glucose oxidase method.

[2] = tested on: normal mice; assay: Test of acute toxicity by intravenous administration; format: in vivo; conditions: 5.04 g/kg intravenous injection
Text: 1) Experimental Method • 20 Normal mice (half male and half female) were administrated with 5.04 g/kg Sequoyitol (which reached the maximum concentration and the maximum intravenous administration volume) by intravenous injection. The animals' responses were observed. The mice were executed after 14 days, and their organs were macroscopically observed.

[3] = tested on: mouse hyperglycemia induced by adrenalin; assay: Effect of Sequoyitol on mouse hyperglycemia induced by adrenalin; format: in vivo, Kunming mice; conditions: for hepatic glycogen level increased compared to the control group: adrenalin model; for blood-sugar level decreased compared to the control group: 30 minutes after adrenalin 0.2 mg/kg i.p.
Description: 1. Experimental Methods^[3] • 72 Mice were randomly divided into 6 groups, wherein 4 groups were orally administrated with 25, 50 and 100 mg/kg of Sequoyitol and 10 mg/kg of Glibenclamide according to 0,1 ml/10 g of body weight, respectively, and the normal group and modeling group were administrated with the same volum of distilled water. These administrations were conducted for continuous 7 days. The normal group was administrated with the same volum of physiological saline by injection, while other groups were administrated with 0.2 mg/kg of adrenalin by intra-abdominal injection. The blood-sugar levels were detected by glucose oxidase method after 30 minutes of administration. The livers of the mice were collected, and hepatic glycogen levels were detected by anthrone method.

[4] = tested on: mouse hyperglycemia induced by glucose; assay: Effect of Sequoyitol on mouse hyperglycemia induced by glucose; format: in vivo, Kunming mice
Description: 1. Experimental Method^[4] • 72 Mice were randomly divided into 6 groups, […] according to 0.1 ml/10 g of body weight, respectively, and the normal group and modeling group were administrated with the same volum of distilled water. These administrations were conducted for continuous 7 days. The normal group was administrated with the same volum of physiological saline by injection, while other groups were administrated with […] of glucose by intra-abdominal injection. After 30, 60, 90 and 120 minutes of administration, bloods were collected from venous plexus behind fossa orbitalis, the serums were separated, and the blood-sugar levels were separately detected by glucose oxidase method.

[5] = Sequoyitol 25 mg/kg oral 7 days
[6] = Sequoyitol 100 mg/kg oral 7 days

COC1C(O)C(O)C(O)C(O)C1O (stereo not shown) [Sequoyitol, 5-O-methyl-myo-inositol]
blood-sugar level compared with the normal group [1]: not significantly different | main organs under macroscopic observation ([2]; executed after 14 days): free of abnormality | animals' responses after intravenous injection ([2]; observed 14 days): better health status, gloss fur, bright eyes, and good rang of motion | hepatic glycogen level increased compared to the control group ([3]; Sequoyitol 20 mg/kg (so in the source) oral 7 days): 1.24 mg/g of liver tissue | blood-sugar level decreased compared to the control group [3, 5]: 32.2 mg/dL | hepatic glycogen level increased compared to the control group [3, 5]: 1.76 mg/g of liver tissue | blood-sugar level decreased compared to the control group ([3]; Sequoyitol 50 mg/kg oral 7 days): 35.5 mg/dL | blood-sugar level decreased compared to the control group [3, 6]: 39.9 mg/dL | hepatic glycogen level increased compared to the control group [3, 6]: 1.24 mg/g of liver tissue | effect for alleviating hyperglycemia compared with phenformine ([4]; 100 mg/kg Sequoyitol vs 75 mg/kg phenformine): equivalent to that of 75 mg/kg phenformine | glucose-induced hyperglycemia compared to the control group ([4]; 25 and 50 mg/kg Sequoyitol groups, oral 7 days, 30, 60, 90 minutes after i.p. glucose): significantly alleviated | glucose-induced hyperglycemia compared to the control group ([4]; Sequoyitol 100 mg/kg oral 7 days, 30, 60, 90, 120 minutes after i.p. glucose): highly significantly alleviated | blood-sugar level decreased compared to the control group ([4]; Sequoyitol 100 mg/kg oral 7 days, 90 minutes after i.p. glucose): 24.5 mg/dL
